From ChEMBL document CHEMBL1136655, “Synthesis of imidazopyridines and purines as potent inhibitors of leukotriene A4 hydrolase” (Bioorg Med Chem Lett, 2003)

What was measured:
[1] = molecular target: T1, Leukotriene A-4 hydrolase (Homo sapiens, UniProt P09960); assay: In vitro inhibition of recombinant human leukotriene A4 hydrolase.
T1 sequence (P09960 whole entry): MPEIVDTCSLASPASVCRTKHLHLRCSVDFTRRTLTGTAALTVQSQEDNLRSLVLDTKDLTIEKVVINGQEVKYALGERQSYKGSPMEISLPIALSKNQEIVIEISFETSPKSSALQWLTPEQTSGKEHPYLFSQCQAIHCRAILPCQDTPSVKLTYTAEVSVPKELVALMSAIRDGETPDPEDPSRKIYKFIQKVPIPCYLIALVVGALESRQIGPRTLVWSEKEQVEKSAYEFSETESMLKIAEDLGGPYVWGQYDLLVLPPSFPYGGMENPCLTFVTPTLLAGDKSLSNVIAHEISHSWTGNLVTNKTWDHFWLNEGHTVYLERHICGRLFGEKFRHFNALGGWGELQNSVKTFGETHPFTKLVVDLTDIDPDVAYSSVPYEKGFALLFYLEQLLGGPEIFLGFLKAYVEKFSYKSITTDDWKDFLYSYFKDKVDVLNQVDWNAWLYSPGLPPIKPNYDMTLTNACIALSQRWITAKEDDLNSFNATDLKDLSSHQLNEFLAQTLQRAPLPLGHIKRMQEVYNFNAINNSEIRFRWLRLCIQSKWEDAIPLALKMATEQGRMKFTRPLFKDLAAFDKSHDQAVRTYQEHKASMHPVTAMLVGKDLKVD

Homo sapiens = species: Homo sapiens; assay: Inhibition of LTB4 production from whole human blood.; format: functional
Mus musculus = assay: Ex vivo inhibition of LTB4 production in mouse whole blood following 10 mg/kg p.o. administration.; format: functional; conditions: route oral

c1ccc(Cc2ccc(OCCn3cnc4cccnc43)cc2)cc1
IC50 [1]: > 3000 nM
IC50 (Homo sapiens): 9150 nM

Oc1ccc2ncn(CCOc3ccc(Cc4ccccc4)cc3)c2n1
inhibition in vivo at 10 mg/kg (Mus musculus): 72%
IC50 [1]: 500 nM
IC50 (Homo sapiens): 940 nM

c1ccc(Cc2ccc(OCCn3cnc4cnccc43)cc2)cc1
inhibition in vivo at 10 mg/kg (Mus musculus): 64%
IC50 (Homo sapiens): 330 nM

c1ccc(Cc2ccc(OCCn3cnc4ncccc43)cc2)cc1
inhibition in vivo at 10 mg/kg (Mus musculus): 18%
IC50 (Homo sapiens): 330 nM

N#Cc1ccc2c(ncn2CCOc2ccc(Cc3ccccc3)cc2)n1
inhibition in vivo at 10 mg/kg (Mus musculus): 21%
IC50 [1]: 0.8 nM
IC50 (Homo sapiens): 150 nM

c1ccc(Cc2ccc(OCCn3cnc4ccccc43)cc2)cc1
inhibition in vivo at 10 mg/kg (Mus musculus): 46%
IC50 (Homo sapiens): 13200 nM

N#Cc1nccc2c1ncn2CCOc1ccc(Cc2ccccc2)cc1
inhibition in vivo at 10 mg/kg (Mus musculus): 84%
IC50 [1]: 31 nM
IC50 (Homo sapiens): 100 nM

c1ccc(Cc2ccc(OCCn3cccc4ncnc3-4)cc2)cc1
IC50 (Homo sapiens): 690 nM
